The target in this assay is T1, human LPA1 (Homo sapiens, UniProt Q92633).
T1 construct: expressed in transfected cells; host or cells: CHO-K1
T1 sequence (Q92633 whole entry): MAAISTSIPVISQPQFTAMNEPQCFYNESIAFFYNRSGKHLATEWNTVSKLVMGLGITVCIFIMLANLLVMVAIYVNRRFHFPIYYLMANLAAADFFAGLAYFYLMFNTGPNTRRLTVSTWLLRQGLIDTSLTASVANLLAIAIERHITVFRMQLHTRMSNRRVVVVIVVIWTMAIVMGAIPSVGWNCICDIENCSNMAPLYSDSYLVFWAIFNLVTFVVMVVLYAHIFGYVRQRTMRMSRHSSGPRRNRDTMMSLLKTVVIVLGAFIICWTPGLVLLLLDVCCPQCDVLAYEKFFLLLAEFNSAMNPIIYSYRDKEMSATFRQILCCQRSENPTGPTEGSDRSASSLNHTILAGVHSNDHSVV
Description: In vitro LPA1 functional antagonist assay (calcium mobilization, FLIPR). Format: cell-based. To be noted: CHO-K1 cells overexpressing human LPA1; Oleoyl LPA challenge; calcium mobilization on FLIPR Tetra. The method, then: In Vitro LPA1 Functional Antagonist Assay
CHO-K1 cells overexpressing human LPA1 were seeded in a total volume of 20 μL into black-walled, clear-bottom, Poly-D-lysine coated 384-well microplates and incubated at 37° C. for the appropriate time prior to testing. Assays were performed in 1× Dye Loading Buffer consisting of 1× Dye, 1× Additive A and 2.5 mM Probenecid in HBSS/20 mM Hepes. Probenicid was prepared fresh. Cells were loaded with dye prior to testing. Media was aspirated from cells and replaced with […] Dye Loading Buffer. Cells were incubated for 30-60 minutes at 37° C. After dye loading, cells were removed from the incubator and 10 μL 3× test compound was added. Cells were incubated for 30 minutes at room temperature in the dark to equilibrate plate temperature followed by Oleoyl LPA challenge at the 0.018 M. Compound antagonist activity was measured on a FLIPR Tetra (MDS). Calcium mobilization was monitored for 2 minutes and 10 μL Oleoyl LPA in HBSS/20 mM Hepes was added to the cells 5 seconds into the assay. Compound activity was analyzed using CBIS data analysis suite (ChemInnovation, CA). Percentage inhibition is calculated using the following formula:
% Inhibition=100%×(1−(mean RFU of test sample−mean RFU of vehicle control)/(mean RFU of LPA control−mean RFU of vehicle control)).
(In general: A change in cytosolic calcium serves as a functional read-out for many receptors and channels.)
For the molecule `N#Cc1cc([C@@H](O)[C@H](Cn2cc3cccc(C(=O)O)c3n2)OC2CCCC2)ccc1Cl` [Compound 134], the IC50 is greater than 10 µM.
In the case of `COc1cc([C@H](O)[C@H](Cn2cc3cccc(C(N)=O)c3n2)OC2CCCC2)ccc1F` [Compound 135] it was greater than 10 µM.
For the molecule `O=C(O)c1cccc2cn(C[C@H](OC3CCCC3)[C@H](O)c3ccccc3)nc12` [Compound 136], the IC50 is greater than 10 µM.
With `O=C(O)c1cccc2cn(C[C@H](OC3CCCC3)[C@@H](O)c3ccccc3)nc12` [Compound 137], the IC50 is greater than 10 µM.
In the case of `COc1cc([C@H](O)[C@H](Cn2cc3cccc(C(=O)O)c3n2)OC2CCCC2)ccc1F` [Compound 138], the IC50 was greater than 10 µM.
In the case of `COc1cc([C@@H](O)[C@H](Cn2cc3cccc(C(=O)O)c3n2)OC2CCCC2)ccc1F` [Compound 139] it was 1.35 µM.
To `COc1cc([C@@H](O)[C@H](Cn2cc3cccc(C(=O)O)c3n2)OC2CCCCC2)cc(OC)c1C` [Compound 140] belongs 0.0118 µM; to `CCOc1cc([C@@H](O)[C@H](Cn2cc3cccc(C(=O)O)c3n2)OC2CCCC2)ccc1C` [Compound 141], 0.193 µM; to `COc1cc([C@@H](O)[C@H](Cc2nc3c(C(=O)O)cccc3[nH]2)OC2CCCC2)cc(OC)c1C` [Compound 142], greater than 10 µM.
Consider `CCOC(=O)c1cn(C[C@H](OC2CCCC2)[C@H](O)c2cc(OC)c(C)c(OC)c2)cc1CC(=O)O` [Compound 143], for which the IC50 is 0.00766 µM.
To `COc1cc([C@@H](O)[C@H](Cn2cc3cc(Cl)cc(C(=O)O)c3n2)OC2CCCC2)cc(OC)c1C` [Compound 144] belongs 0.00204 µM; to `COc1cc([C@@H](O)[C@H](Cn2cc3cccc(C(=O)O)c3n2)OC(C)C)cc(OC)c1C` [Compound 145], 0.0726 µM.

In general, IC50 refers to the concentration needed to halve the response being measured.

These data come from US20240018102A1, “COMPOUNDS AND COMPOSITIONS FOR TREATING CONDITIONS ASSOCIATED WITH LPA RECEPTOR ACTIVITY” (Lhotse Bio, Inc., priority 2020, published 2024).
